Counter-ions that a name gives are not always drawn.

In the assay the test system is P. Falciparum NF54. Briefly: Plasmodium falciparum in vitro assay ([3H]-hypoxanthine incorporation). To be noted: Plasmodium falciparum, Erythrocyte, P. Falciparum NF54, erythrocytic stages in human red blood cells, 50% human serum. The format is cell-based. In outline:
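This in vitro antimalarial assay used P. falciparum erythrocytic stages cultured in human erythrocytes and measured [3H]-hypoxanthine incorporation. Radioactivity on the dried filters, placed in plastic foil with 10 mL scintillation fluid, was counted in a Betaplate liquid scintillation counter. Sigmoidal inhibition curves built in Microsoft Excel gave the IC50.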
`Cc1cc(N(C)c2cncc(CN(C(=O)/C=C/c3ccc(C(F)(F)F)cc3)C3CCN(C(C)C)CC3)c2)ccn1` [Example 135, (E)-N-(1-Isopropyl-piperidin-4-yl)-N-{5-[methyl-(2-methyl-pyridin-4-yl)-amino]-pyridin-3-ylmethyl}-3-(4-trifluoromethyl-phenyl)-acrylamide formate] had an IC50 of 84 nM.

Compound `CN(c1ccncc1)c1ccc(CN(C(=O)/C=C/c2ccc(C(F)(F)F)cc2)C2CCN(Cc3ccccn3)CC2)cc1` [Example 22, (E)-N-[4-(Methyl-pyridin-4-yl-amino)-benzyl]-N-(1-pyridin-2-ylmethyl-piperidin-4-yl)-3-(4-trifluoromethyl-phenyl)-acrylamide] yielded an IC50 of 176 nM. This IC50 lies about 2.1-fold higher than the previous one.

Take `COc1cccc(/C=C/C(=O)N(Cc2ccc(N(C)c3ccncc3)cc2)C2CCN(Cc3ccccc3)CC2)c1` [Example 150, (E)-N-(1-Benzyl-piperidin-4-yl)-3-(3-methoxy-phenyl)-N-[4-(methyl-pyridin-4-yl-amino)-benzyl]-acrylamide]: 293 nM corresponded to half-maximal inhibition (IC50).

`Cc1cc(Nc2ccc(CN(C(=O)/C=C/c3ccc(C(F)(F)F)cc3)C3CCN(C4CCN(C)CC4)CC3)cc2)ccn1` [Example 116, (E)-N-(1′-Methyl-[1,4′]bipiperidinyl-4-yl)-N-[4-(2-methyl-pyridin-4-ylamino)-benzyl]-3-(4-trifluoromethyl-phenyl)-acrylamide] displayed an IC50 of 70 nM. This IC50 is about 4.2-fold lower than that of the compound before.

`CC(C)N1CCC(N(Cc2cccc(N(C)c3ccncc3)c2)C(=O)/C=C/c2ccc(C(F)(F)F)cc2)CC1` [Example 142, (E)-N-(1-Isopropyl-piperidin-4-yl)-N-[3-(methyl-pyridin-4-yl-amino)-benzyl]-3-(4-trifluoromethyl-phenyl)-acrylamide formate] had an IC50 of 27 nM.

The compound `CN1CCC(N2CCC[C@H](N(Cc3ccc(N(C)c4ccncc4)cc3)C(=O)/C=C/c3ccc(C(F)(F)F)cc3)C2)CC1` [Example 55, (S,E)-N-(4-(methyl(pyridin-4-yl)amino)benzyl)-N-(1′-methyl-[1,4′-bipiperidin]-3-yl)-3-(4-(trifluoromethyl)phenyl)acrylamide] displayed an IC50 of 12 nM.

In the case of `Cc1cc(Nc2ccc(CN(C(=O)/C=C/c3ccc(C(F)(F)F)cc3)C3CCN(Cc4nc(C)oc4C)CC3)cc2)ccn1` [Example 32, (E)-N-[1-(2,5-Dimethyl-oxazol-4-ylmethyl)-piperidin-4-yl]-N-[4-(2-methyl-pyridin-4-ylamino)-benzyl]-3-(4-trifluoromethyl-phenyl)-acrylamide], the IC50 was found to be 89 nM.

The compound `CN(c1ccncc1)c1ccc(CN(C(=O)/C=C/c2ccc(C(F)(F)F)cc2)C2CCN(CC(c3ccccc3)c3ccccc3)CC2)cc1` [Example 15, (E)-N-[1-(2,2-Diphenyl-ethyl)-piperidin-4-yl]-N-[4-(methyl-pyridin-4-yl-amino)-benzyl]-3-(4-trifluoromethyl-phenyl)-acrylamide] returned an IC50 of 41 nM.

For `Cc1cc(Nc2ccc(CN(C(=O)/C=C/c3ccc(C(F)(F)F)cc3)C3CCN(C4CCCC4)CC3)cc2)c2ccccc2n1` [Example 85, (E)-N-(1-Cyclopentyl-piperidin-4-yl)-N-[4-(2-methyl-quinolin-4-ylamino)-benzyl]-3-(4-trifluoromethyl-phenyl)-acrylamide], half-maximal inhibition (IC50) required 43 nM.

Consider `CC(C)N1CCC(N(Cc2cccc(Nc3ccncc3)n2)C(=O)/C=C/c2ccc(C(F)(F)F)cc2)CC1` [Example 132, (E)-N-(1-Isopropyl-piperidin-4-yl)-N-[6-(pyridin-4-ylamino)-pyridin-2-ylmethyl]-3-(4-trifluoromethyl-phenyl)-acrylamide formate], for which the IC50 came out at 22 nM.

For the compound `Cc1ccc(CN2CCC(N(Cc3ccc(N(C)c4ccncc4)cc3)C(=O)/C=C/c3ccc(C(F)(F)F)cc3)CC2)cc1` [Example 12, (E)-N-[1-(4-Methyl-benzyl)-piperidin-4-yl]-N-[4-(methyl-pyridin-4-yl-amino)-benzyl]-3-(4-trifluoromethyl-phenyl)-acrylamide], half-maximal inhibition (IC50) required 29 nM.

In turn, `O=C(/C=C/c1ccc(C(F)(F)F)cc1)N(Cc1ccc(-c2cncnc2)cc1)C1CCN(C2CCCC2)CC1` [Example 204, (E)-N-(1-Cyclopentyl-piperidin-4-yl)-N-(4-pyrimidin-5-yl-benzyl)-3-(4-trifluoromethyl-phenyl)-acrylamide] returned an IC50 of 431 nM.

Regarding `Cc1cc(Nc2ccc(CN(CCCN3CCOCC3)C(=O)/C=C/c3ccc(C(F)(F)F)cc3)cc2)ccn1` [Example 173, (E)-N-[4-(2-Methyl-pyridin-4-ylamino)-benzyl]-N-(3-morpholin-4-yl-propyl)-3-(4-trifluoromethyl-phenyl)-acrylamide], the midpoint of inhibition, the IC50, lay at 355 nM.

The compound `CN(c1ccncc1)c1ccc(CN(C(=O)/C=C/c2ccccc2F)C2CCN(Cc3ccccc3)CC2)cc1` [Example 157, (E)-N-(1-Benzyl-piperidin-4-yl)-3-(2-fluoro-phenyl)-N-[4-(methyl-pyridin-4-yl-amino)-benzyl]-acrylamide] gave an IC50 of 190 nM.

`Cc1cc(Nc2ccc(CN(C(=O)/C=C/c3ccc(Cl)cc3)C3CCN(C4CCCC4)CC3)cn2)ccn1` [Example 169, (E)-3-(4-Chloro-phenyl)-N-(1-cyclopentyl-piperidin-4-yl)-N-[6-(2-methyl-pyridin-4-ylamino)-pyridin-3-ylmethyl]-acrylamide] showed an IC50 of 134 nM.

As for `Cc1cc(Nc2ccc(CN(C(=O)/C=C/c3ccc(C(F)(F)F)cc3)C3CCN(C4CCCC4)CC3)cn2)ncn1` [Example 109, (E)-N-(1-Cyclopentyl-piperidin-4-yl)-N-[6-(6-methyl-pyrimidin-4-ylamino)-pyridin-3-ylmethyl]-3-(4-trifluoromethyl-phenyl)-acrylamide], the IC50 is 393 nM.

For the compound `CN(c1ccncc1)c1ccc(CN(C(=O)/C=C/c2ccc(C(F)(F)F)cc2)C2CCN(Cc3cccnc3)CC2)cc1` [Example 23, (E)-N-[4-(Methyl-pyridin-4-yl-amino)-benzyl]-N-(1-pyridin-3-ylmethyl-piperidin-4-yl)-3-(4-trifluoromethyl-phenyl)-acrylamide], the IC50 amounted to 123 nM.

Compound `CC(C)CCN1CC2(CC(N(Cc3ccc(N(C)c4ccncc4)cc3)C(=O)/C=C/c3ccc(C(F)(F)F)cc3)C2)C1` [Example 75, (E)-N-(2-isopentyl-2-azaspiro[3.3]heptan-6-yl)-N-(4-(methyl(pyridin-4-yl)amino)benzyl)-3-(4-(trifluoromethyl)phenyl)acrylamide] registered a 50% inhibitory concentration (IC50) of 30 nM.

`O=C(/C=C/c1ccc(C(F)(F)F)cc1)N(Cc1ccc(Nc2cncnc2)cc1)C1CCN(C2CCCC2)CC1` [Example 91, (E)-N-(1-Cyclopentyl-piperidin-4-yl)-N-[4-(pyrimidin-5-ylamino)-benzyl]-3-(4-trifluoromethyl-phenyl)-acrylamide] yielded a half-inhibitory concentration (IC50) of 291 nM.

Regarding `Cc1cc(Nc2ccc(CN(C(=O)/C=C/c3ccc(C(F)(F)F)cc3)C3CCN(CC4CC4)CC3)cc2)ccn1` [Example 31, (E)-N-(1-Cyclopropylmethyl-piperidin-4-yl)-N-[4-(2-methyl-pyridin-4-ylamino)-benzyl]-3-(4-trifluoromethyl-phenyl)-acrylamide], the IC50 amounted to 39 nM.

Regarding `Cc1cnccc1Nc1cccc(CN(C(=O)/C=C/c2ccc(C(F)(F)F)cc2)C2CCN(C(C)C)CC2)n1` [Example 130, (E)-N-(1-Isopropyl-piperidin-4-yl)-N-[6-(3-methyl-pyridin-4-ylamino)-pyridin-2-ylmethyl]-3-(4-trifluoromethyl-phenyl)-acrylamide formate], it took 42 nM to reach half-maximal inhibition (IC50).

For `Cc1nccc(Nc2ccc(CN(C(=O)/C=C/c3ccc(C(F)(F)F)cc3)C3CCN(C4CCCC4)CC3)cn2)n1` [Example 108, (E)-N-(1-Cyclopentyl-piperidin-4-yl)-N-[6-(2-methyl-pyrimidin-4-ylamino)-pyridin-3-ylmethyl]-3-(4-trifluoromethyl-phenyl)-acrylamide], the IC50 was 430 nM.

The compound `CN1CCC(N(C)c2ccc(CN(C(=O)/C=C/c3ccc(OC(F)(F)F)cc3)C3CCN(Cc4ccccc4)CC3)cc2)CC1` [Example 178, (E)-N-(1-Benzyl-piperidin-4-yl)-N-{4-[methyl-(1-methyl-piperidin-4-yl)-amino]-benzyl}-3-(4-trifluoromethoxy-phenyl)-acrylamide] registered an IC50 of 343 nM.

`O=C(/C=C/c1ccc(C(F)(F)F)cc1)N(Cc1ccc(-c2ncccn2)cc1)C1CCN(C2CCCC2)CC1` [Example 203, (E)-N-(1-Cyclopentyl-piperidin-4-yl)-N-(4-pyrimidin-2-yl-benzyl)-3-(4-trifluoromethyl-phenyl)-acrylamide]: the IC50 was 400 nM.

Regarding `Cc1nc(CN2CCC(N(Cc3ccc(N(C)c4ccncc4)cc3)C(=O)/C=C/c3ccc(C(F)(F)F)cc3)CC2)co1` [Example 4, (E)-N-[1-(2-Methyl-oxazol-4-ylmethyl)-piperidin-4-yl]-N-[4-(methyl-pyridin-4-yl-amino)-benzyl]-3-(4-trifluoromethyl-phenyl)-acrylamide], the IC50 stood at 133 nM.

On to `Cc1cc(Nc2ccc(CN(C(=O)/C=C/c3ccc(C(F)(F)F)cc3)C3CCN(C)CC3)cc2)ccn1` [Example 174, (E)-N-(1-Methyl-piperidin-4-yl)-N-[4-(2-methyl-pyridin-4-ylamino)-benzyl]-3-(4-trifluoromethyl-phenyl)-acrylamide], for which the half-inhibitory concentration (IC50) stood at 67 nM.

On to `CN(c1ccncc1)c1ccc(CN(C(=O)/C=C/c2ccccc2Cl)C2CCN(Cc3ccccc3)CC2)cc1` [Example 154, (E)-N-(1-Benzyl-piperidin-4-yl)-3-(2-chloro-phenyl)-N-[4-(methyl-pyridin-4-yl-amino)-benzyl]-acrylamide], for which the IC50 was 145 nM.

On to `CC(C)CCN1CCC[C@@H](N(Cc2ccc(N(C)c3ccncc3)cc2)C(=O)/C=C/c2ccc(C(F)(F)F)cc2)C1` [Example 62, (R,E)-N-(1-isopentylpiperidin-3-yl)-N-(4-(methyl(pyridin-4-yl)amino)benzyl)-3-(4-(trifluoromethyl)phenyl)acrylamide], for which the concentration for half-maximal inhibition (IC50) amounted to 70 nM.

For the origin of these results see patent US9637473B2, “Acrylamide derivatives as antimalarial agents” (priority 2013, dated 2017).
